Results from the METLIN SMRT retention time set (Domingo-Almenara et al. 2019).

Assay: gradient 5% acetonitrile 3 min, to 50% in 2 min, to 85% in 15 min, held 3 min, 100 µL/min
Details: column: Zorbax Extend-C18 2.1 x 50 mm; eluents: water / acetonitrile, 0.1% formic acid
Summary of the method: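 Pure standards were analyzed in mixtures of ~100 molecules using HPLC coupled to a quadrupole time-of-flight mass spectrometer, in both positive and negative ionization mode. Separation used a Zorbax Extend-C18 column (2.1 × 50 mm, 1.8 μm) at 100 μL/min, with water and acetonitrile each containing 0.1% formic acid. Dead and dwell volumes were 40 μL and 900 μL, and data were collected over 3 months. Retention time was read from computationally picked adduct peaks, each inspected manually.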

Row | Structure (SMILES) | RP-LC retention time
1 | CN1CCN(C(=O)c2ccc(-c3nnc4ccc(NC(=O)C5CCC5)cn34)cc2)CC1 | 587 s
2 | O=C(Cn1cccc(-c2nc(-c3ccc(Br)cc3)no2)c1=O)NCCc1ccccc1 | 1060 s
3 | Cc1ccc2c(Nc3cccc(C(F)(F)F)c3)c(C(=O)N3CCOCC3)cnc2n1 | 573 s
4 | CCNC(=O)N1CCc2c([nH]c3ccccc23)C12C(=O)N(C)c1ccccc12 (stereo not given) | 756 s
5 | CCn1nccc1C(=O)N1CCN(c2cc(-c3ccccc3)[nH]n2)CC1 | 694 s
6 | O=c1c(NCCCc2ccccc2)nc2ccncc2n1Cc1ccccc1 | 778 s
7 | Cc1ccc(C)c(-c2csc(NC(=O)CCC(=O)O)n2)c1 | 781 s
8 | Cc1ccc2c(c1)N(C(=O)CCC(=O)NCCCN1CCC(N3CCCCC3)CC1)CC(C)O2 (stereo not given) | 576 s
9 | O=C(NCc1ccco1)c1cc2c(s1)CCN(C(=O)c1ccccc1)C2 | 758 s
10 | Cc1ccc(N2CCN(C(=O)c3cn4nc(Cl)ccc4n3)CC2)cc1 | 823 s
11 | CC(C)Oc1ccc(C(=O)N[C@H](CNC(=O)CN(C)C)Cc2ccc(-c3cn4cccc([C@H](C)O)c4n3)cc2)cc1Cl | 664 s
12 | O=C(Cc1ccc(F)cc1)N1CCN(C(=O)c2cc(-c3cccnc3)n[nH]2)CC1 | 606 s
13 | CC(C)NCC(O)c1ccc(N)c(C#N)c1 (stereo not given) | 563 s
14 | O=C(c1ccc(-c2cccnc2)nc1)N1CCN(c2cccc(Cl)c2)CC1 | 726 s
15 | CC(C)CN1C(=O)c2cccn2CC1C(=O)N1CCCC1 (stereo not given) | 674 s
16 | Cc1ccc(C)c(S(=O)(=O)N2CCC(c3nc(C(=O)N4CCOCC4)c(C)o3)CC2)c1 | 891 s
17 | O=C(Cc1cc(-c2ccc3c(c2)OCO3)on1)NCc1cccnc1 | 573 s
18 | COC(=O)c1c(N)n(CCc2ccccc2)c2nc3ccccc3nc12 | 711 s
19 | COc1ccc(CNC(=O)C2CCCN(c3nc4ccccc4n(Cc4ccccc4)c3=O)C2)cc1 (stereo not given) | 1090 s
20 | O=C(NCCCOc1cccc2cccnc12)c1cc(-c2ccccc2)on1 | 617 s
21 | COCCN1C(=O)c2cccn2CC1CNC(=O)c1cnc(C)cn1 (stereo not given) | 610 s
22 | CCc1nn2c(CNS(=O)(=O)c3cc(F)ccc3F)c(-c3ccccc3)nc2s1 | 929 s
23 | COc1ccc(OC)c(S(=O)(=O)N2CCC(n3cnc4c(C)cccc4c3=O)CC2)c1 | 918 s

Row | Structure (SMILES) | RP-LC retention time
24 | Cc1ccc(C)c(N2CCN(c3ccnc(SCC(=O)Nc4ccc(F)c(Cl)c4)n3)CC2)c1 | 997 s
25 | CCOC(=O)c1cc(S(=O)(=O)N(C)CC(=O)N2CCN(c3ccccn3)CC2)cn1C | 614 s
26 | O=c1nc(-c2ccccc2)c2ccccc2[nH]1 | 618 s
27 | CC(C)(CO)NCc1ccc(-c2ccc(F)c(Cl)c2)o1 | 644 s
28 | Cn1cc(-c2cc3n(n2)CCCN3C(=O)CCC(=O)NCc2ccco2)c2ccccc21 | 754 s
29 | CC(C)Oc1ccc(-c2nc3ncccn3c2NC2CCCCC2)cc1 | 870 s
30 | CSc1cccc(NC(=O)Cn2c(N3CCC(C)CC3)nc(C)cc2=O)c1 | 765 s
31 | COc1ccc(N2CC(c3nc(-c4oc5ccc(OC)cc5c4C)no3)CC2=O)cc1 (stereo not given) | 1020 s
32 | COc1ccc2[nH]cc(CCNC(=O)Cc3ccc(F)cc3)c2c1 | 790 s
33 | CCC(=O)NC(C)c1nc(-c2ccc(C)cc2)no1 (stereo not given) | 777 s
34 | Cc1sc(-n2cccc2)nc1C(=O)N1CCN(c2ccccn2)CC1 | 623 s
35 | COc1cccc(N2CCN(c3ccnc(SCC(=O)Nc4cc(F)ccc4Cl)n3)CC2)c1 | 836 s
36 | COc1ccc(CNC(=O)c2[nH]c3cc(C)sc3c2CN(C)C)cc1OC | 641 s
37 | O=C(Nc1ccc2ncsc2c1)c1cc(Cl)sc1Cl | 852 s
38 | O=C(NC1CCN(c2cc(-c3ccc(Cl)cc3)[nH]n2)C1)c1ccc2c(c1)OCO2 (stereo not given) | 715 s
39 | CCc1nc(-c2csc(S(=O)(=O)N3CCCC(C(=O)NCc4cc(C)ccc4C)C3)c2)no1 (stereo not given) | 1080 s
40 | O=C(NC1CC1)c1ccc(-n2cccc2)nc1 | 728 s
41 | CN1CCCn2cc(S(=O)(=O)Nc3ccc4c(c3)OCCO4)cc2C1=O | 655 s
42 | Cc1[nH]c(C(=O)N2CCC(CC(=O)NCC3CCCO3)CC2)c(C)c1C(=O)OC(C)C (stereo not given) | 682 s
43 | Cc1cc(C)cc(-c2nnc(Cc3nc(-c4cccc(Cl)c4)no3)o2)c1 | 1230 s
44 | Cc1ccc(C)c(S(=O)(=O)N2CCc3c(c(-c4nnc(-c5ccccc5F)o4)nn3C)C2)c1 | 1010 s
45 | Cc1ccc(NC(=O)Nc2ccccc2C(N)=O)cc1 | 815 s
